Test in all cases: inhibition of tumour cell growth, NCI panel, 48 h
For test [1], the system named is RXF 393 renal.
Test [2] deals with SNB-75 CNS.
Test [3] deals with A498 renal.
Test [4] deals with MOLT-4 leukemia.
Test [5] has as its system HCT-15 colon.
Test [6] concerns LOX IMVI melanoma.
The subject of test [7] is KM12 colon.
In test [8] the test system is UACC-257 melanoma.
Test [9] deals with OVCAR-5 ovarian.
In test [10] the test system is OVCAR-8 ovarian.

Several values for one entry are separate records, joined by “and”; a condition that tells them apart may be missing. Equal entries are not always repeated.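 Where inhibition never reached the appropriate level, the endpoint shown equals the highest concentration tested. Otherwise, values were interpolated linearly from a five-concentration, 48-hour dose response in 96-well plates. Here, GI50 denotes the concentration required for 50% inhibition of growth. TGI is the concentration that stops growth completely.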 A value given as a limit tells only on which side of the number the result lay.

With `COc1cc2c(c(OC)c1OC)[C@@H]1CCCCC[C@@H]1CCC2=O`, the TGI is more than 100000 nM in test [1]; more than 100000 nM in [2]; more than 100000 nM in test [3]; more than 64700 nM in [4]; more than 100000 nM in test [5]; 38900 nM in [6]. The TGI in test [7], in test [8], in test [9] and in test [10] was more than 100000 nM throughout.
Consider `O=C(Nc1ccc(Br)cc1)c1cc(Br)ccc1O`, for which the GI50 in [1] is 612 nM; in test [2], 348 nM and 1340 nM; in test [3], 219 nM and 358 nM; in test [4], 683 nM and 799 nM; in test [5], 483 nM and 779 nM; in test [6], 549 nM and 1090 nM. The GI50 is 1670 nM and 2000 nM in [7]; 455 nM and 2730 nM in [8]; 1750 nM and 4790 nM in [9]; 554 nM and 2650 nM in test [10]. In addition, the TGI in test [1] is 3890 nM; in test [2], 3070 nM and 14300 nM; in [3], 841 nM and 1820 nM; in [4] it was 3200 nM and 3890 nM; in [5], 4010 nM and 7350 nM; in [6], 4460 nM and 4420 nM. Further, the TGI was 4990 nM and 5310 nM in test [7]; 3580 nM and 8430 nM in test [8]; more than 92400 nM in test [9]; more than 82800 nM in [10].
In the case of `COc1cc(Br)c(/C=N/N=C(\N)NO)cc1OC`, the TGI in [1] was 54400 nM; in test [2], 65900 nM; in test [3], 78900 nM; in test [4], more than 100000 nM; in test [5], more than 100000 nM; in test [6], 61200 nM. Moreover, the TGI in test [7] was more than 100000 nM; in [8], 51000 nM; in test [9] it was more than 100000 nM; in test [10], 76000 nM.
With `COc1cc(C(C)c2cc3c(cc2OCCCCCOc2cc4c(cc2C(C)c2cc(OC)c(OC)c(OC)c2)OCO4)OCO3)cc(OC)c1OC` (centres undefined), the TGI in test [1], in [2], in [3], in test [4], in [5] and in test [6] was more than 100000 nM in each case. The TGI in test [7], in [8], in [9] and in test [10] was more than 100000 nM each time.
As to `CCOC(=O)c1ccc(N[C@@H]2c3cc4c(cc3C(c3cc(OC)c(O)c(OC)c3)[C@H]3C(=O)OCC32)OCO4)cc1` (some centres undefined), the GI50 in [1] is 426 nM and 1950 nM; in test [2] it was 308 nM; in test [3], 332 nM; in [4] it was 27.1 nM; in [6] it was 217 nM and 118 nM; in [7] it was 875 nM. The GI50 in test [9] is 646 nM; in test [10] it was 479 nM. Besides, the TGI in test [1] was 5930 nM; in [2], 909 nM and 4980 nM; in [3], 1920 nM; in test [4] it was 219 nM and 158 nM; in test [5], 6170 nM; in test [6], 1610 nM. Also, the TGI in test [7] was determined as 5290 nM; in test [8] it was 25000 nM; in test [9] it was 6160 nM; in test [10] it was 6490 nM.
In the case of `CC(C)C[C@H](NC(=O)[C@@H](N)Cc1cccc2ccccc12)B(O)O`, the GI50 in test [1] was 136 nM; in [2] it was 1070 nM; in test [3] it was 202 nM; in test [4], 210 nM; in test [5], 350 nM; in [6] it was 184 nM. The GI50 in test [7] was 546 nM; in [8], 315 nM; in [9] it was 174 nM; in [10], 1620 nM. For the same compound, the TGI in test [8] was 1120 nM and 114 nM.
For `Cc1nc2ccccc2c(/C=C/c2ccc(F)cc2)c1C(=O)/C=C/c1ccccc1`, the GI50 in test [1] was 1740 nM; in test [2] it was 8150 nM; in [3] it was 2220 nM; in test [4], 1740 nM; in [5], 1920 nM; in [6] it was 1690 nM. The GI50 in test [7] was 2380 nM; in test [8], 2820 nM; in test [9] it was 1920 nM; in [10], 2620 nM. In addition, the TGI is 3260 nM in test [1]; more than 100000 nM in test [2]; 4620 nM in test [3]; 6570 nM in test [4]; 6200 nM in [5]; 3110 nM in [6]. For the same compound, the TGI in test [7] turned out to be 6820 nM; in test [8], 8650 nM; in [9] it was 3950 nM; in test [10], 7750 nM.
As to `Cc1nsc2cc(Cl)n(C)c(=O)c12`, the TGI in test [1], in test [2], in test [3], in [4], in test [5] and in test [6] was more than 100000 nM each time. The TGI in test [7], in test [8], in test [9] and in [10] was more than 100000 nM each time.

Values taken from PubChem BioAssay (NCI).
